Assay [1] relates to Plasmodium falciparum. Put plainly: Antimalarial activity against Plasmodium falciparum D6 infected in RBCs assessed as inhibition of [3H]hypoxanthine incorporation after 72 hrs. It is filed as functional, organism-based.
Assay [2] deals with Plasmodium falciparum. Put plainly: Antimalarial activity against Plasmodium falciparum TM91c235 harboring DHFR F57L, S58R, T61M, S117T mutant infected in RBCs assessed as inhibition of [3H]hypoxanthine incorporation after 72 hrs. The class given is functional, organism-based.
Assay [3] deals with Plasmodium falciparum. Put plainly: Antimalarial activity against Plasmodium falciparum D6 harboring Plasmodium vivax wild type DHFR infected in RBCs assessed as inhibition of [3H]hypoxanthine incorporation after 72 hrs. The class given is functional, organism-based.
For assay [4], the system named is Plasmodium falciparum. Put plainly: Antimalarial activity against Plasmodium falciparum D6 harboring Plasmodium vivax DHFR S117N mutant infected in RBCs assessed as inhibition of [3H]hypoxanthine incorporation after 72 hrs. The class given is functional, organism-based.
For assay [5], the system named is Plasmodium falciparum. Put plainly: Antimalarial activity against Plasmodium falciparum D6 harboring Plasmodium vivax DHFR F57L and S117N mutant infected in RBCs assessed as inhibition of [3H]hypoxanthine incorporation after 72 hrs. The class given is functional, organism-based.
Assay [6] concerns Plasmodium falciparum. Put plainly: Antimalarial activity against Plasmodium falciparum D6 harboring Plasmodium vivax DHFR S58R and S117N mutant infected in RBCs assessed as inhibition of [3H]hypoxanthine incorporation after 72 hrs. The class given is functional, organism-based.
For assay [7], the system named is Plasmodium falciparum. Put plainly: Antimalarial activity against Plasmodium falciparum D6 harboring Plasmodium vivax DHFR S58R, T61M and S117N mutant infected in RBCs assessed as inhibition of [3H]hypoxanthine incorporation after 72 hrs. It is filed as functional, organism-based.
Assay [8] concerns Plasmodium falciparum. Put plainly: Antimalarial activity against Plasmodium falciparum D6 harboring Plasmodium vivax DHFR F57L, S58R, T61M, S117T mutant infected in RBCs assessed as inhibition of [3H]hypoxanthine incorporation after 72 hrs. The class given is functional, organism-based.
Assay [9] relates to Plasmodium falciparum. Put plainly: Ratio of IC50 for Plasmodium falciparum D6 harboring Plasmodium vivax DHFR S117N mutant to IC50 for Plasmodium falciparum D6 harboring Plasmodium vivax wild type DHFR. The class given is functional.
Assay [10] has as its system Plasmodium falciparum. Put plainly: Ratio of IC50 for Plasmodium falciparum D6 harboring Plasmodium vivax DHFR F57L and S117N mutant to IC50 for Plasmodium falciparum D6 harboring Plasmodium vivax wild type DHFR. The class given is functional.
Assay [11] has as its system Plasmodium falciparum. Put plainly: Ratio of IC50 for Plasmodium falciparum D6 harboring Plasmodium vivax DHFR S58R and S117N mutant to IC50 for Plasmodium falciparum D6 harboring Plasmodium vivax wild type DHFR. It is filed as functional.
Assay [12] has as its system Plasmodium falciparum. Put plainly: Ratio of IC50 for Plasmodium falciparum D6 harboring Plasmodium vivax DHFR S58R, T61M and S117N mutant to IC50 for Plasmodium falciparum D6 harboring Plasmodium vivax wild type DHFR. It is filed as functional.
Assay [13] concerns Plasmodium falciparum. Put plainly: Ratio of IC50 for Plasmodium falciparum D6 harboring Plasmodium vivax DHFR F57L, S58R, T61M, S117T mutant to IC50 for Plasmodium falciparum D6 harboring Plasmodium vivax wild type DHFR. The class given is functional.
Assay [14] concerns Plasmodium falciparum. Put plainly: Ratio of IC50 for Plasmodium falciparum TM91c235 harboring DHFR F57L, S58R, T61M, S117T mutant to IC50 for Plasmodium falciparum D6. It is filed as functional.

As usually defined, the IC50 is the concentration that inhibits the measured activity by half. For `CC1(C)N=C(N)N=C(N)N1OCc1ccc(Cl)c(Cl)c1` [CLOCIGUANIL], the IC50 in the assay with Plasmodium falciparum [1] was determined as 0.021 nM; with Plasmodium falciparum [2], 3.16 nM; in the assay with Plasmodium falciparum [3], 0.022 nM; in the assay on Plasmodium falciparum [4] it was 0.067 nM; in the assay on Plasmodium falciparum [5], 0.219 nM; with Plasmodium falciparum [6], 0.582 nM. Besides, the IC50 in the assay on Plasmodium falciparum [7] was 0.073 nM; in the assay on Plasmodium falciparum [8] it was 56.4 nM. For the same compound, the “Ratio IC50” value was found to be 6 in the assay on Plasmodium falciparum [9]; 10 in the assay on Plasmodium falciparum [10]; 26 in the assay with Plasmodium falciparum [11]; 3 with Plasmodium falciparum [12]; 2565 with Plasmodium falciparum [13]; 144 in the assay with Plasmodium falciparum [14].
In the case of `CC1(C)N=C(N)N=C(N)N1c1ccc(Cl)cc1` [CYCLOGUANIL], the half-maximal inhibitory concentration (IC50) with Plasmodium falciparum [1] stood at 0.118 nM; with Plasmodium falciparum [2], 116 nM; with Plasmodium falciparum [3], 0.429 nM; in the assay with Plasmodium falciparum [4] it was 0.81 nM; with Plasmodium falciparum [5], 2.77 nM; in the assay with Plasmodium falciparum [6] it was 1.7 nM. Also, the IC50 amounted to 0.587 nM in the assay on Plasmodium falciparum [7] and 320 nM in the assay on Plasmodium falciparum [8]. Moreover, the “Ratio IC50” value is 2 with Plasmodium falciparum [9]; 6 in the assay on Plasmodium falciparum [10]; 4 in the assay on Plasmodium falciparum [11]; 1 with Plasmodium falciparum [12]; 746 in the assay with Plasmodium falciparum [13]; 50 in the assay with Plasmodium falciparum [14].
Take `CCc1nc(N)nc(N)c1-c1ccc(Cl)cc1` [PYRIMETHAMINE]: the IC50 amounted to 0.028 nM in the assay on Plasmodium falciparum [1]; 143 nM in the assay on Plasmodium falciparum [2]; 0.055 nM with Plasmodium falciparum [3]; 3.66 nM in the assay on Plasmodium falciparum [5]; 6.26 nM with Plasmodium falciparum [6]; 2.81 nM in the assay on Plasmodium falciparum [7]. Besides, in the assay with Plasmodium falciparum [8], the IC50 was determined as 467 nM.
`CC1(C)N=C(N)N=C(N)N1OCCCOc1cc(Cl)c(Cl)cc1Cl`: the 50% inhibitory concentration (IC50) in the assay with Plasmodium falciparum [1] came to 0.166 nM; with Plasmodium falciparum [2], 0.339 nM; with Plasmodium falciparum [3] it was 0.067 nM; in the assay on Plasmodium falciparum [4], 0.427 nM; with Plasmodium falciparum [5] it was 1.5 nM; in the assay on Plasmodium falciparum [6] it was 0.69 nM. Also, the IC50 stood at 0.105 nM in the assay on Plasmodium falciparum [7] and 2.93 nM in the assay on Plasmodium falciparum [8]. For the same compound, the “Ratio IC50” value with Plasmodium falciparum [9] is reported as 6; with Plasmodium falciparum [10], 22; in the assay on Plasmodium falciparum [11], 10; in the assay on Plasmodium falciparum [12], 2; with Plasmodium falciparum [13], 44; in the assay with Plasmodium falciparum [14], 5.

These data come from ChEMBL document CHEMBL1671704, “Defining the role of mutations in Plasmodium vivax dihydrofolate reductase-thymidylate synthase gene using an episomal Plasmodium falciparum transfection system” (Antimicrob Agents Chemother, 2010).
